# Source: US6579861B2, “1α-hydroxy-2-methylene-19-nor-homopregnacalciferol and its uses” (Wisconsin Alumni Research Foundation, priority 2000, dated 2003)
# “Also recorded” adds a separate entry of the source.
# Key:
# [1] = system: Sprague-Dawley rats; test: Intestinal calcium transport after chronic i.p. doses in vitamin D-deficient rats; format: in vivo, rat; conditions: for Intestinal Calcium Transport (S/M): vitamin D-deficient rats, low Ca diet, average ± SE, 5 animals
# Protocol: (§1) Male, weanling Sprague-Dawley rats were placed on Diet 11 (0.47% Ca) diet+AEK for 11 days, followed by Diet 11 (0.02% Ca)+AEK for 31 days. Dosing (i.p.) began 7 days prior to sacrifice. Doses were given on a daily basis, 24 hours apart. The first 10 cm of the intestine was collected for gut transport studies and serum was collected for bone Ca mobilization analysis. The results are reported in Table 1 and illustrated in the graph of FIG. 2.
# [2] = system: Sprague-Dawley rats; test: Pre-dose and post-dose serum calcium (bone mobilization) after a single oral dose in rats; format: in vivo, rat; conditions: average of 6 rats; for Post-Dose serum calcium: about 24 h after a single 1 nmol oral dose (gavage, vegetable oil); for Pre-Dose serum calcium: baseline, about 24 h before sacrifice, before the 1 nmol oral dose
# Protocol: Weanling, male Sprague-Dawley rats (6/group) were placed on a vitamin D-deficient diet for a total of 5 weeks. During the first three weeks, the animals were fed a normal calcium diet (Diet 11+0.47% Ca+AEK supplement) and the last two weeks they were fed a low calcium diet (Diet 11+0.02% Ca+AEK supplement). Approximately 24 hours prior to sacrifice, animals were tail bled and then dosed with 1 nmol of the respective compounds. The doses were delivered orally in 100 microliters of vegetable oil by gavage. Serum was collected approximately 24 hour post-dose and it, along with the pre-dose serum, were subjected to total calcium analysis using atomic absorption spectrometry.
# [3] = system: Sprague-Dawley rats; test: Serum calcium (bone calcium mobilization) after chronic i.p. doses in vitamin D-deficient rats; format: in vivo, rat; conditions: for Serum Calcium (bone calcium mobilization): vitamin D-deficient rats, low Ca diet, average ± SE, 5 animals
# Protocol: as §1
# [4] = system: 24-hydroxylase (240Hase) gene promoter in ROS 17/2.8 (bone) cells; test: Transcriptional activity, 24-hydroxylase promoter luciferase reporter in bone cells; format: cell-based
# Protocol: (§2) Transcriptional activity was measured in two different cell lines. ROS 17/2.8 (bone) or LLC (kidney) cells were stably transfected with a 24-hydroxylase (240Hase) gene promoter upstream of a luciferase reporter gene (Arbour et al, 1998). Cells were given a range of doses. Sixteen hours after dosing the cells were harvested and luciferase activities were measured using a luminometer. The EC50 of 1α-hydroxy-2-methylene-19-nor-homopregnacalciferol is about 10 times lower in bone cells than kidney cells. […] The graphs of FIGS. 5 and 6 are representative of 4 to 5 independent experiments. In FIGS. 5 and 6, RLU means relative luciferase units.
# [5] = system: HL-60 cells; test: Differentiation of HL-60 promyelocytes into monocytes; format: cell-based; conditions: FIG. 4; result in words
# Protocol: FIG. 4 is a graph illustrating the percent HL-60 cell differentiation as a function of the concentration of 1α-hydroxy-2-methylene-19-nor-homopregnacalciferol and of 1α,25-dihydroxyvitamin D3;
# The differentiation of HL-60 promyelocytic into monocytes was determined as described by Ostrem et al (J. Biol. Chem. 262, 14164-14171, 1987).
# [6] = molecular target: T1, vitamin D pig intestinal nuclear receptor (Sus scrofa, UniProt A3RGC1); test: Competitive binding of [3H]-1,25-(OH)2-D3 to the porcine intestinal vitamin D receptor; conditions: FIG. 1, result in words
# T1 construct: from tissue; host or cells: pig intestine (nuclear receptor preparation)
# T1 sequence (A3RGC1 1-427): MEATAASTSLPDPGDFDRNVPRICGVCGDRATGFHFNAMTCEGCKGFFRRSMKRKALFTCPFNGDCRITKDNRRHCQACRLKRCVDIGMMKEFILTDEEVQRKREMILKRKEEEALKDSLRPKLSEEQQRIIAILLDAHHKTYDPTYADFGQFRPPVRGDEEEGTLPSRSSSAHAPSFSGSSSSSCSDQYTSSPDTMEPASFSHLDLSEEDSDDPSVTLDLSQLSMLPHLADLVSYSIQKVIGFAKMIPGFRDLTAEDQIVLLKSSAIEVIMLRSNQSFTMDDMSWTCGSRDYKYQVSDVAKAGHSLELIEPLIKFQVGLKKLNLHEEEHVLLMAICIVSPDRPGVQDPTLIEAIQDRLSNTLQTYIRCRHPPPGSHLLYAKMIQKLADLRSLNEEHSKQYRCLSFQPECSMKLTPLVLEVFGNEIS
# Description: FIG. 1 is a graph illustrating the relative activity of 1α-hydroxy-2-methylene-19-nor-homopregnacalciferol and 1α,25-dihydroxyvitamin D3 to compete for binding of [^3H]-1,25-(OH)2-D3 to the vitamin D pig intestinal nuclear receptor;
# The introduction of a methylene group to the 2-position of 1α-hydroxy-19-nor-homopregnacalciferol had little or no effect on binding to the porcine intestinal vitamin D receptor, as compared to 1α,25-dihydroxyvitamin D3.
# Competitive binding of the analogs to the porcine intestinal receptor was carried out by the method described by Dame et al (Biochemistry 25, 4523-4534, 1986).
# [7] = system: 24-hydroxylase (240Hase) gene promoter in LLC (kidney) cells; test: Transcriptional activity, 24-hydroxylase promoter luciferase reporter in kidney cells; format: cell-based; conditions: 16 h after dosing, FIG. 6, result in words
# Protocol: as §2
# [8] = listed as 1α-hydroxy-2-methylene-19-nor-homopregnacalciferol
compound,measurement,setting,value
"C=C1/C(=C\C=C2/CCC[C@]3(C)[C@@H]([C@H](C)CCCC(C)(C)O)CC[C@@H]23)C[C@@H](O)C[C@@H]1O [1,25-(OH)2D3, 1α,25-dihydroxyvitamin D3, reference compound]",Intestinal Calcium Transport (S/M),[1]; 250 pmol/day/7 days i.p.,5.21 ± 0.73 S/M
same,Intestinal Calcium Transport (S/M),[1]; 500 pmol/day/7 days i.p.,6.85 ± 0.79 S/M
same,Post-Dose serum calcium,[2],5.42 mg/dL
same,Pre-Dose serum calcium,[2],4.51 mg/dL
same,Serum Calcium (bone calcium mobilization),[3]; 250 pmol/day/7 days i.p.,7.40 ± 0.47 mg/100 ml
same,Serum Calcium (bone calcium mobilization),[3]; 500 pmol/day/7 days i.p.,7.20 ± 0.33 mg/100 ml
"C=C1[C@H](O)CC(=C/C=C2\CCC[C@]3(C)[C@@H]([C@@H](C)CCCC(C)(C)O)CC[C@@H]23)C[C@H]1O [2-methylene-19-nor-20(S)-1α,25-dihydroxyvitamin D3]",Post-Dose serum calcium,[2],7.33 mg/dL
same,Pre-Dose serum calcium,[2],4.45 mg/dL
"C=C1[C@H](O)CC(=C/C=C2\CCC[C@@]3(C)C2CCC3C(C)C)C[C@H]1O (stereo partly drawn) [2MHP, 1α-hydroxy-2-methylene-19-nor-homopregnacalciferol]",EC50 in bone cells relative to kidney cells (times lower),"[4]; ROS 17/2.8 (bone) versus LLC (kidney) cells, luciferase reporter",about 10 times
same,Transcriptional activity in bone cells,"[4]; ROS 17/2.8 cells, 16 h after dosing, FIG. 5, result in words",has transcriptional activity in bone cells; also recorded: significant transcriptional activity
same,"HL-60 differentiation potency compared to 1,25(OH)2D3",[5],"almost as potent as 1,25(OH)2D3; also recorded: only slightly less active than 1,25-(OH)2D3"
same,"Binding to the vitamin D receptor compared to 1,25-(OH)2D3",[6]; [8],"bound equally well to the porcine receptor as compared to the standard 1,25-(OH)2D3"
same,"Binding to the vitamin D receptor compared to 1,25-(OH)2D3",[6]; listed as 2 MHP,"slightly less active than 1,25(OH)2D3"
same,Intestinal Calcium Transport (S/M),[1]; 250 pmol/day/7 days i.p.,3.22 ± 0.14 S/M
same,Intestinal Calcium Transport (S/M),[1]; 500 pmol/day/7 days i.p.,3.90 ± 0.38 S/M
same,"Intestinal calcium transport activity compared to 1,25(OH)2D3","[1]; Table 1 and FIG. 2, result in words","very little activity; also recorded: significantly less than that of 1,25-(OH)2D3"
same,Post-Dose serum calcium,[2],4.36 mg/dL
same,Pre-Dose serum calcium,[2],4.86 mg/dL
same,Transcriptional activity in kidney cells,[7]; [8],"greater than or equivalent to 1,25(OH)2D3"
same,Transcriptional activity in kidney cells,[7]; listed as 2 MHP,has transcriptional activity in kidney cells; also recorded: significant transcriptional activity
same,Serum Calcium (bone calcium mobilization),[3]; 250 pmol/day/7 days i.p.,4.84 ± 0.37 mg/100 ml
same,Serum Calcium (bone calcium mobilization),[3]; 500 pmol/day/7 days i.p.,3.96 ± 0.19 mg/100 ml
same,"Bone calcium mobilization activity (raising serum calcium) compared to 1,25(OH)2D3","[3]; Table 1, FIG. 3 and FIG. 7, result in words","very little bone calcium mobilization activity; also recorded: significantly less potent than 1,25(OH)2D3"
